In brackets after ≈: the same amount, converted by molar mass. Bridge positions count the residues as written; N and C are the ends. Square brackets hold non-standard residues; d marks the D form. Peptide text beside a SMILES is read from it. dNMeF = CN[C@H](Cc1ccccc1)C(=O)O; Nva = CCC[C@H](N)C(=O)O
Tests used:
MRSA ATCC 33591 = details: ATCC 33591
Procedure: (§1) For MIC testing all peptides were dissolved in DMSO (according to the method of L. L. Ling, et al., Nature 2015, 517, 455-459). Bacteria were grown on Mueller Hinton broth (oxoid). All incubations were at 37° C. Dilutions were carried out using Mueller Hinton. 100 μl of autoclaved Mueller Hinton broth was added to wells 2-12 on a 96-well plate. 200 μl of the peptide was added to well one at a concentration of 512 μg/ml. 100 μl of peptide in well one was taken up and pipetted into well two. The mixture was then mixed via pipetting before 100 μl was taken up and pipetted into well three. This process was repeated up to well 11. […] This was repeated three times. The 96-well plates were then incubated for 24 hours. The MIC was determined to be the lowest concentration at which there was no growth visible.

MRSA ATCC 700699 = test: microbe, parasite or virus in culture; details: ATCC 700699
Procedure: as §1

MRSA DM21455 (eye) = test: microbe, parasite or virus in culture; details: DM21455 (eye)
Procedure: as §1

VRE ATCC 29212 = test: microbe, parasite or virus in culture; details: ATCC 29212
Procedure: as §1

MRSA DR 42412 (sputum) = test: microbe, parasite or virus in culture; details: DR 42412 (sputum)
Procedure: as §1

VRE ATCC 700802 = test: microbe, parasite or virus in culture; details: ATCC 700802
Procedure: as §1

| SMILES | MIC (MRSA) (MRSA ATCC 33591) | further results |
| --- | --- | --- |
| CC[C@@H](C)[C@@H](NC(=O)[C@@H](CCCNC(=N)N)NC(=O)[C@H](CO)NC(=O)[C@@H](NC(=O)[C@@H](Cc1ccccc1)NC)[C@@H](C)CC)C(=O)N[C@H](C(=O)N[C@@H](CO)C(=O)N[C@H]1C(=O)N[C@@H](C)C(=O)N[C@@H](Cc2ccccc2)C(=O)N[C@@H]([C@@H](C)CC)C(=O)O[C@H]1C)[C@@H](C)CC [Compound 52, D-Arg4-Phe10-teixobactin] | 2 µg/mL (≈ 1.58 µM) | – |
| CCCCCCCCCC(=O)N[C@@H](Cc1c[nH]c2ccccc12)C(=O)N[C@H](CC(N)=O)C(=O)N[C@@H](CC(=O)O)C(=O)N[C@@H]1C(=O)NCC(=O)N[C@@H](CCCN)C(=O)N[C@@H](CC(=O)O)C(=O)N[C@H](C)C(=O)N[C@@H](CC(=O)O)C(=O)NCC(=O)N[C@H](CO)C(=O)N[C@@H]([C@H](C)CC(=O)O)C(=O)N[C@@H](CC(=O)c2ccccc2N)C(=O)O[C@@H]1C [Daptomycin, reference compound] | – | MIC (MRSA ATCC 700699): 0.25 µg/mL (≈ 0.154 µM); MIC (MRSA DM21455 (eye)): <0.0625 µg/mL; MIC (VRE ATCC 29212): 0.25 µg/mL (≈ 0.154 µM); MIC (MRSA DR 42412 (sputum)): <0.0625 µg/mL; MIC (VRE ATCC 700802): 0.25 µg/mL (≈ 0.154 µM) |

Further lines, with some results ahead:

| MIC (MRSA) (MRSA ATCC 33591) | SMILES | further results |
| --- | --- | --- |
| 0.5 µg/mL (≈ 0.373 µM) | CCC[C@@H]1NC(=O)[C@H](CCCNC(=N)N)NC(=O)[C@H](NC(=O)[C@H](CO)NC(=O)[C@@H](NC(=O)[C@H](NC(=O)[C@@H](CCC(N)=O)NC(=O)[C@H](CCCNC(=N)N)NC(=O)[C@@H](NC(=O)[C@@H](Cc2ccccc2)NC)[C@@H](C)CC)[C@H](C)CC)[C@@H](C)CC)[C@H](C)OC(=O)[C@H]([C@@H](C)CC)NC1=O [Compound 49, Arg3-Arg9-Nva10-teixobactin] (H-[dNMeF]IR[dQ][dI]IS[dT]R[Nva]I; ester 8-C) | – |
| 0.5 µg/mL (≈ 0.384 µM) | CCC[C@@H]1NC(=O)[C@H](CCCNC(=N)N)NC(=O)[C@H](NC(=O)[C@H](CO)NC(=O)[C@@H](NC(=O)[C@H](NC(=O)[C@@H](CCCNC(=N)N)NC(=O)[C@H](CO)NC(=O)[C@@H](NC(=O)[C@@H](Cc2ccccc2)NC)[C@@H](C)CC)[C@H](C)CC)[C@@H](C)CC)[C@H](C)OC(=O)[C@H]([C@@H](C)CC)NC1=O [Compound 50, D-Arg4-Arg9-Nva10-teixobactin] (H-[dNMeF]IS[dR][dI]IS[dT]R[Nva]I; ester 8-C) | – |
| 64 µg/mL (≈ 46.7 µM) | CCC[C@@H]1NC(=O)[C@H](CCCNC(=N)N)NC(=O)[C@H](NC(=O)[C@H](CO)NC(=O)[C@@H](NC(=O)[C@H](NC(=O)[C@@H](CCCNC(=N)N)NC(=O)[C@H](CCCNC(=N)N)NC(=O)[C@@H](NC(=O)[C@@H](Cc2ccccc2)NC)[C@@H](C)CC)[C@H](C)CC)[C@@H](C)CC)[C@H](C)OC(=O)[C@H]([C@@H](C)CC)NC1=O [Compound 51, Arg3-D-Arg4-Arg9-Nva10-teixobactin] (H-[dNMeF]IR[dR][dI]IS[dT]R[Nva]I; ester 8-C) | – |
| 4 µg/mL (≈ 3.37 µM) | CC[C@@H](C)[C@@H](NC(=O)[C@@H](CCCNC(=N)N)NC(=O)[C@H](CO)NC(=O)[C@@H](NC(=O)[C@@H](Cc1ccccc1)NC)[C@@H](C)CC)C(=O)N[C@H](C(=O)N[C@@H](CO)C(=O)N[C@H]1C(=O)N[C@@H](C)C(=O)N[C@@H](C)C(=O)N[C@@H]([C@@H](C)CC)C(=O)O[C@H]1C)[C@@H](C)CC [Compound 53, D-Arg4-Ala10-teixobactin] | – |
